Tested on: T1, turtle liver aldolase (ALDOA/ALDOB, suggested heterotetramer)
T1 construct: native, purified from liver of normoxic adult females (DEAE+, two Cibacron Blue steps); ~37 kDa subunit
Test: coupled NADH assay (alpha-glycerophosphate dehydrogenase / triose phosphate isomerase), […] nm
Format: biochemical, Trachemys scripta elegans
Details: enzyme from normoxic liver; 100 mM KPi pH 7.2, 10 mM EDTA, 25 °C; A/B isoenzyme mixture or heterotetramer

Compound | Km [mM]
O=P(O)(O)OCC1(O)O[C@H](CO)[C@@H](O)[C@@H]1O (some centres unmarked) [F1P, fructose-1-phosphate] | ~14
O=P(O)(O)OC[C@H]1OC(O)(COP(=O)(O)O)[C@@H](O)[C@@H]1O (some centres unmarked) [FBP, fructose-1,6-bisphosphate] | 0.00024 ± 3e-05

— paper PMC3715522, “Characterization of Fructose-1,6-Bisphosphate Aldolase during Anoxia in the Tolerant Turtle, Trachemys scripta elegans: An Assessment of Enzyme Activity, Expression and Structure” (PLoS ONE, 2013)
